# Laboratory results as given in article PMC7504215, “Copper(II) Complexes with Mixed Heterocycle Ligands as Promising Antibacterial and Antitumor Species” (Molecules, 2020).
# Columns and labels:
# [1] = system: sod1Δ cells; type: cell-based, Saccharomyces cerevisiae; settings: sod1Δ cells lacking Cu/Zn-superoxide dismutase Sod1
# Description: (§1) The Saccharomyces cerevisiae laboratory strain BY4741 (MATa; his3Δ1; leu2Δ0; met15Δ0; ura3Δ0), considered wild type (WT), and the isogenic strains sod1Δ and sod2Δ lacking the genes SOD1 (encoding Cu/Zn-superoxide dismutase) and SOD2 (encoding Mn-superoxide dismutase) were purchased from EUROSCARF (Frankfurt, Germany). Cells were maintained and manipulated and grown in YPD medium (1% w/v yeast extract, 2% w/v peptone, 2% w/v glucose; 2% w/v agar was added for solid media). Complexes were added to autoclaved media from DMSO sterile stocks (10 mM). To determine the effect of compounds on yeast growth, a fresh overnight pre-culture was 10^3-fold diluted in YPD and incubated (200 rpm, 30 °C) until the culture reached a density of 5 × 10^5 cells/mL. At this point, the compounds were added to the desired concentrations, and cell proliferation was monitored at 660 nm in a 96-well multi-scanner autoreader plate reader equipped with a thermostat and shaker (Varioskan Thermo Fischer Scientific, Vantaa, Finland). The uptake of compounds by yeast cells was determined indirectly by measuring the increase of the total cellular copper content normalized to the total cellular protein determined by Bradford assay. All determinations were done on three biological replicates. The IC50 was calculated by nonlinear regression analysis using the Graphpad Prism software.
# [2] = system: sod2Δ cells; type: cell-based, Saccharomyces cerevisiae; settings: sod2Δ cells lacking Mn-superoxide dismutase Sod2
# Description: as §1
# [3] = system: λ-DNA; assay: UV-Vis absorption titration with DNA; type: binding, bacteriophage lambda; settings: 3 μM complex, increasing λ-DNA, Tris/HCl/NaCl buffer pH 8
# Description: (§2) To determine whether compounds have the capacity to interact with DNA, 48,500 base-pairs of genomic DNA from bacteriophage lambda (λ-DNA, Promega. Madison USA) was used. A stock solution of 10 µM λ-DNA (base-pair concentration) was prepared in 10 mM Tris/HCl buffer containing 1 mM NaCl, pH 8.
# The UV-Vis absorption titration experiments were done maintaining constant the complex concentration (3 µM) and increasing the concentration of λ-DNA, in Tris-HCl/NaCl buffer solution, at room temperature, until a saturation state was achieved. After DNA addition, the solutions were allowed to equilibrate for 5 min at room temperature. The UV-Vis absorption spectra were recorded with a Jasco V-630 spectrophotometer, using a 10 mm quartz cell. Stock solutions of compounds were prepared in DMSO (1 mM) and diluted to 3 µM in 10 mM Tris/HCl containing 1 mM NaCl, pH 8.
# [4] = system: λ-DNA/EB adduct; assay: Quenching of fluorescence of λ-DNA/ethidium bromide adduct; type: binding, bacteriophage lambda; settings: λ-DNA pre-treated with EB, increments of complex, pH 8
# Description: as §2
# The binding of compounds to λ-DNA was assayed by monitoring the quenching of fluorescence emitted by λ-DNA/ethidium bromide (EB) adduct (λexcit = 510, maximum emission at λem = 601). The λ-DNA solution was added to the EB solution, prepared in the same buffer, then increasing concentrations of compounds were added to EB-DNA [2, 48]. The fluorescence spectra were recorded in the range of 550–750 nm using a Thermo Fischer Scientific Varioskan Flash spectral scanning multimode reader (Vantaa, Finland). The spectra were recorded in suitable plates using 5 nm excitation and emission slits for all measurements.
# [5] = system: plasmid pRSII325; assay: Nuclease activity assay, gel electrophoresis; type: biochemical; settings: for Nuclease activity in the presence of H2O2: 3 µM compound + 1 mM H2O2, 1 h at 37 °C; for Nuclease activity in the presence of ascorbate: 3 µM compound + 1 mM ascorbate; for Nuclease activity in the presence of ascorbate / Nuclease activity, compound alone: 1 h at 37 °C; for Nuclease activity, compound alone: 3 µM compound, no activating agent
# Description: The nuclease activity of the compounds was determined using plasmid pRS325II DNA, which was a gift from Steven Haase (Addgene plasmid #35467, 6835 base pairs). The plasmid was amplified in Escherichia coli by transforming One Shot® TOP10 chemically competent E. coli from Invitrogen, Thermo Fisher Scientific (Vilnius, Lithuania). Plasmid was isolated from positive colonies using a PureLink™ HiPure Plasmid Miniprep Kit from Invitrogen, Thermo Fisher Scientific (Vilnius, Lithuania). Plasmid (200 ng/sample) was exposed to 3 µM compounds in the presence of 1 mM hydrogen peroxide (to exploit the Cu(II/III) redox couple) or 1 mM ascorbic acid (to exploit the Cu(I/II) redox couple). The DNA cleavage experiments for the complexes were done in a 9/1 (v/v) ratio of 50 mM Tris-HCl buffer, pH 8, and DMSO. The samples were incubated for 1 h at 37 °C before a bromophenol blue/xylene cyanol-based loading dye (Roth, Germany) was added to the samples. Partial cleavage of the plasmid to linear form was done with the restriction enzyme EcoRI (Promega, USA) by incubation for 5 min at 37 °C. The samples were loaded on a 1% (w/v) agarose gel containing 1 μg/mL EtBr in 1 × TAE (Tris–acetic acid–EDTA) buffer. Electrophoresis was performed at 100 V for 45 min in 1 × TAE buffer. The images of the fluorescent ethidium bromide-stained gels were captured using a gel documentation system (Doc-Print II, Vilber Lourmat, France). The cleavage experiments were done six times, with similar results. One representative gel is shown.
# [6] = Superoxide scavenging ability by EPR spectroscopy; settings: 2.5 μM complex in DMSO, O2− 10, 20 and 30 µM
# Description: The superoxide scavenging ability of the complexes was tested using the KO2 compound as a superoxide source combined with EPR spectroscopy. […] The KO2 was dissolved by complexation with dibenzo-18-crown-6-ether.
# [7] = system: BJ cells; assay: Phalloidin staining and cell imaging (cytoskeleton, nucleus); type: cell-based, Human; settings: 24 h, 6 μg/mL
# Description: Cytoskeleton actin filaments of BJ and B16 cells were stained with phalloidin-FITC (Sigma-Aldrich, USA) according to the manufacturer’s protocol. Briefly, cells were washed with PBS (5 min, 3 times), fixed for 5 min with 3% paraformaldehyde, washed three times with PBS, permeabilized with 0.1% Triton X-100 in PBS for 15 min, washed three times with PBS, stained with 20 μg mL^−1 phalloidin-FITC at room temperature for 1 h and washed again three times with PBS. Cell nucleus was stained with 8 μM of Hoechst 33342 solution for 10 min, washed three times with PBS and finally, mounted and sealed on glass slides with FluorSave™ Reagent (Merck Millipore, Germany). The fluorescence images were acquired using an Andor DSD2 Confocal Unit (Andor, Ireland), mounted on an epifluorescence microscope, Olympus BX-51 (Olympus, Germany), equipped with a 40x and 100x objective and an appropriate DAPI/Hoechst filter cube (excitation filter 390/40 m, dichroic mirror 405 nm and emission filter 452/45 nm) and GFP/FITC filter cube (excitation filter 466/40 nm, dichroic mirror 488 nm and emission filter 525/54 nm).
structure (smiles),measurement,setting,value
"Cc1cc(-c2ccccc2)nc2ncnn12.[Cu+2].[O-][Cl+3]([O-])([O-])[O-].[O-][Cl+3]([O-])([O-])[O-].c1ccc(-c2ccccn2)nc1.c1ccc(-c2ccccn2)nc1 [(1), [Cu(bpy)2(pmtp)](ClO4)2]",Toxicity compared with WT yeast,[1],even more toxic
same,Toxicity compared with WT yeast,[2],even more toxic
same,Change of UV absorption spectrum on binding to λ-DNA,[3],decrease in the absorption intensity of the band located at 290 nm
same,Fluorescence of λ-DNA/EB adduct on adding complex,[4],the fluorescence intensity decreased
same,Nuclease activity in the presence of H2O2,[5],led to DNA degradation
same,Nuclease activity in the presence of ascorbate,[5],led to DNA degradation
same,"Nuclease activity, compound alone",[5],caused plasmid relaxation to the NC form
same,Superoxide scavenging (EPR signal decrease),[6],trap the superoxide radicals
same,Cell morphology (cytoskeleton and nucleus),[7],does not alter its morphology
"Cc1cc(-c2ccccc2)nc2ncnn12.[Cu+2].[O-][Cl+3]([O-])([O-])[O-].[O-][Cl+3]([O-])([O-])[O-].c1cnc2c(c1)ccc1cccnc12.c1cnc2c(c1)ccc1cccnc12 [(2), [Cu(phen)2(pmtp)](ClO4)2]",Toxicity compared with WT yeast,[1],even more toxic
same,Toxicity compared with WT yeast,[2],even more toxic
same,Change of UV absorption spectrum on binding to λ-DNA,[3],hypochromism observed for the band at 270 nm
same,Fluorescence of λ-DNA/EB adduct on adding complex,[4],the fluorescence intensity decreased
same,Nuclease activity in the presence of H2O2,[5],led to DNA degradation
same,Nuclease activity in the presence of ascorbate,[5],led to DNA degradation
same,"Nuclease activity, compound alone",[5],caused plasmid relaxation to the NC form
same,Superoxide scavenging (EPR signal decrease),[6],trap the superoxide radicals
same,Cell morphology (cytoskeleton and nucleus),[7],affects the cell morphology
